Test results: PMC10304650 (Journal of medicinal chemistry, 2023)

How the values were obtained:
other CK1 isoforms = assay: Specificity among CK1 isoforms; assay type: biochemical
[1] = test system: bladder cancer cell lines; assay: Cell proliferation, CellTiter-Glo, 72 hours; assay type: cell-based, human; conditions: three bladder cancer cell lines
97 kinases = assay: KINOMEscan profiling; assay type: binding; conditions: 97 kinases examined
[2] = test system: phosphorylation of 4E-BP1 in T24 cells; assay: Phosphorylation of 4E-BP1 by western blot; assay type: cell-based, human; conditions: 1 μM, 24h

Antiproliferative potency, EC50 [1] | Compound | Inhibition of other CK1 isoforms (other CK1 isoforms) | KINOMEscan binding affinity (97 kinases) | Inhibition of phosphorylation of T37/46, S65 and T70 of 4E-BP1 [2]
nanomolar | COc1ccc(-n2cnc3c(NCc4nc5c(F)c(F)ccc5[nH]4)nc(N4CCOCC4)nc32)cc1 [SR-4310, N-((6,7-difluoro-1H-benzo[d]imidazol-2-yl)methyl)-9-(4-methoxyphenyl)-2-morpholino-9H-purin-6-amine] | do not inhibit | – | –
high nanomolar | Fc1ccc2[nH]c(CNc3nc(N4CCOCC4)nc4c3ncn4-c3ccc4ccccc4c3)nc2c1F [SR-4133, N-((4,5-difluoro-1H-benzo[d]imidazol-2-yl)methyl)-2-morpholino-9-(naphthalen-2-yl)-9Hpurin-6-amine] | do not inhibit | weak binding affinity only to CK1δ, PDGFRB, and TRKA | blocks the phosphorylation
